Assay results taken from patent US5756683A, “Immunological detection method” (Novartis Finance Corporation, priority 1991, dated 1998).

Biological target: MAb 4197-70-12
Experiment: two-step competitive ELISA; inhibition of MAb binding to carrier-bound antigen (cross-reactivity)
Set-up: species or system mouse (Balb/c)
Details: for I50 (inhibitor concentration that reduces the ELISA signal by 50% in comparison with the control): competitive ELISA; for cross-reactivity: (antigen conc. for 50% inhibition/concentration of the antigen analog for 50% inhibition) × 100: relative to compound of formula (II) = 100
Procedure: [antigen concentration for 50% inhibition (I50)/concentration of the
antigen analogs for 50% inhibition (I50)]×100.
The I50 value can be determined, for example, by means of a competitive ELISA assay (see Example 8).
The detection of a compound of formula (II) can be effected by means of a two-step competitive ELISA test.
BSA-conjugated hapten, prepared in accordance with Example 1.2.1, in a 50 mM sodium carbonate buffer (pH 9.6) (200 ng of BSA-conjugated hapten/100 μl of 50 mM sodium carbonate buffer) is first of all adsorbed on microtitre plates (for example Dynatech, type M 129A) and incubated overnight at a temperature of 4° C.
The plates are then washed five times with PBS buffer enriched with 0.1% (v/v) polysorbate 20 (Tween 20) (PBS Tween).
The remaining free binding sites of the solid carrier material are then blocked by the addition of PBS-BSA in the form of a 1% (w/v) solution. After incubation for two hours at 22° C. the plates are washed again with PBS Tween (0.1%).
50 μl of the supernatant of the previously cloned hybridoma cells (in a dilution of from 1:1000 to 1:2000) or 50 μl of the previously purified monoclonal antibodies (40-120 ng/ml) are incubated a) with 950 μl of a standard solution containing an increasing amount of antigen [compound of formula (II)] or of antigen analog, b) with antigen-containing water samples or c) with antigen-containing soil extracts. [All dilutions are carried out in PBS Tween (0.1%)].
After an incubation period of 1 hour at room temperature (22° C.), 200 μl of the antigen/antibody mixture are added to each well in the microtitre plate and the whole batch is incubated for a further one hour. The wells are then washed five times with PBS Tween (0.1%) and charged with 100 μl/well of goat anti-mouse IgG antibody that is conjugated to alkaline phosphatase (dilution 1:1500), and incubated for a period of 1.5 hours.
After washing again, 150 μl/well of the substrate p-nitrophenyl phosphate dissolved in 1 mg/ml of diethanolamine buffer (1 mM, pH 9.8, enriched with 0.5 mM MgCl2 ×6H2 O) are added to the wells.
The intensity of the colour reaction that has occurred is determined at a wavelength of 405 nm. […] All the samples are determined in triplicate.
In order to determine the amount of antigen [[…]] present in a sample, first of all a calibration curve is produced, B/Bo×100 being plotted against the concentration of inhibitor. (Bo represents the absorption capacity measured without the addition of an antigen inhibitor to the antibody, and B is the absorption capacity when antigen inhibitors at various concentrations are added). The I50 value indicates the concentration of the antigen at which the binding of antibody to the solid phase is inhibited by 50%. The I50 value is determined using an ENZFITTER (Leatherbarrow, Elsevier-Biosoft) curve-calculation program based on a four-parameter logistical curve (Raab GM, 1983) and specially adapted to the prevailing conditions. The quantitative determination of antigen in soil or water samples within the context of ELISA is also carried out using the ENZFITTER program, the adaptation of the curve being based on standards that run on any microtitre plate.
^a) Inhibitor concentration that reduces the ELISA signal by 50% in
comparison with the control.
^b) (antigen conc. for 50% inhibition/concentration of the antigen
analog for 50% inhibition) × 100.

I50 (inhibitor concentration that reduces the ELISA signal by 50% in comparison with the control) [ng/mL] | cross-reactivity: (antigen conc. for 50% inhibition/concentration of the antigen analog for 50% inhibition) × 100 [%] | cross-reactivity in words | Compound
> 1000 | < 0.1 | – | COc1nc(C)nc(NC(=O)NS(=O)(=O)c2ccc(O)cc2OCCCl)n1 [A]
> 1000 | < 0.1 | no cross-reactivity | COc1nc(C)nc(NC(=O)NS(=O)(=O)c2ccccc2OCCCl)n1 [B]
> 1000 | < 0.1 | – | COC(=O)c1ccccc1S(=O)(=O)NC(=O)Nc1nc(OC(F)F)cc(OC(F)F)n1 [D]

Compound | I50 (inhibitor concentration that reduces the ELISA signal by 50% in comparison with the control) [ng/mL] | cross-reactivity: (antigen conc. for 50% inhibition/concentration of the antigen analog for 50% inhibition) × 100 [%] | cross-reactivity in words
COc1nc(C)nc(NC(=O)NS(=O)(=O)c2ccccc2CCC(F)(F)F)n1 [Compound of formula (II), N-[2-(3,3,3-trifluoropropyl)-phenylsulfonyl]-N'-(4-methoxy-6-methyl-1,3,5-triazin-2-yl)urea] | 0.8 | 100 | –
